Values after ≈ are worked out from the molar mass of the structure shown. Read-outs that look alike come from different tables or passages of the source.
Experiments:
[1] = used to estimate hepatic blood clearance; no reference given; cited from earlier work
[2] = Solubility in aqueous media; type: physicochemical
[3] = Absolute oral bioavailability crossover study: plasma pharmacokinetics (LC-MS/MS, non-compartmental analysis); type: in vivo, human; conditions: for half-life: read-out: t½ (plasma terminal half-life) (converted); for Tmax: median (range)
Protocol: This was an open-label, phase 1, randomized two-sequence, two-treatment, two-period, crossover study in healthy participants. Approximately 12 participants were to be randomized in a 1:1 ratio to receive one of two treatment sequences: lorlatinib 50 mg IV dose (Treatment A) followed by a lorlatinib 100 mg single oral dose (Treatment B), or lorlatinib oral dose followed by lorlatinib IV dose. The IV dose is 100% bioavailable and was, therefore, considered to be the reference in this study. The reference lorlatinib 50 mg single IV dose was administered as 250 mL IV solution (0.20 mg/mL) over approximately 1.25 h at a constant rate in the morning of Day 1. Lorlatinib 100 mg single oral dose was administered as 4 × 25 mg immediate-release free base tablets in the morning of Day 1 with 240 mL ambient temperature water. Participants were instructed to swallow the lorlatinib tablets whole and to not manipulate or chew the tablets prior to swallowing. Both treatments were administered after an overnight fast of at least 10 h. To standardise the conditions on PK sampling days, during the first 4 h after dosing or start of the IV dose, participants were to refrain from eating and drinking beverages other than water or lying down (unless required for safety monitoring). Period 1 was defined as a 7-day period in which participants received Treatment A or B. Period 2 was defined as the 7-day period after Period 1, in which participants received the alternative treatment to before. Following treatment administration, participants were to undergo PK sampling for 144 h with a washout period of at least 10 days between successive lorlatinib doses. The study was conducted at a single Pfizer Clinical Research Unit (CRU) in New Haven, Connecticut, and participants were confined to the CRU from the time of admission (Day 0) until discharge (Day 7 of Period 2).
The detection range was 0.05–50 ng/mL or 1 to 1000 ng/mL for low and high concentration samples, respectively. […] Calibration standard responses were linear over the range of 2.50–2500 ng/mL; using a weighted (l/concentration^2) linear least squares regression. […] The lower limit of quantification (LLOQ) for lorlatinib and its metabolite was 2.50 ng/mL.
PK parameter values were calculated using an internally validated software system (eNCA). Actual sample collection times were used for the PK parameter analysis and samples below the LLOQ were set to 0. Maximum observed plasma concentration, Cmax, and time when Cmax was reached, Tmax, were determined from the observed values. The area under the curve (AUC) from time 0 to the time of the last quantifiable concentration (AUClast) was estimated using the linear/log trapezoidal method. AUCinf was calculated as AUClast + (Clast/kel), where Clast was the predicted plasma concentration at the last quantifiable time point estimated from the log-linear regression analysis and kel was the terminal phase rate constant calculated by a linear regression of the log-linear concentration–time curve. PK parameters based on terminal phase estimation were reported only where a well-characterized terminal phase was observed. A well-characterized terminal phase is defined as one with at least three data points, r^2 ≥ 0.9, and AUCextrap% ≤ 20. Metabolite-to-parent ratios were calculated after adjustment for molecular weights. Clearance (CL) for the IV dose and CL/F for the oral dose were calculated as dose/AUCinf. Volume of distribution during the terminal phase (area) was calculated as IV dose/(kel×AUCinf).
The hepatic extraction ratio was calculated for each participant as the hepatic blood clearance divided by hepatic blood flow.
Summary profiles (mean) of the lorlatinib plasma concentration–time data were plotted by treatment. Nominal PK sampling time was used for summary statistics and summary plots by sampling time.

[4] = planned IV dose formulation, rabbits; earlier toxicology studies, no reference given; cited from earlier work
[5] = 100 mg oral tablets vs 50 mg IV, healthy participants, n = 11
[6] = lorlatinib 100 mg oral tablets, n = 11, geometric mean (geometric %CV)

## C[C@H]1Oc2cc(cnc2N)-c2c(nn(C)c2C#N)CN(C)C(=O)c2ccc(F)cc21 [Lorlatinib, (10R)-7-amino-12-fluoro-2,10,16-trimethyl-15-oxo-10,15,16,17-tetrahydro-2H-8,4-(metheno)pyrazolo[4,3-h][2,5,11]-benzoxadiazacyclotetradecine-3-carbonitrile]
[1]
  Blood-to-plasma partitioning ratio: 0.985
[2]; pH 2.55
  solubility: 32.4 mg/mL (≈ 79.7 mM)
[2]; pH 8.02
  solubility: 0.17 mg/mL (≈ 0.418 mM)
[3]; [5]
  Absolute oral bioavailability: ratio (test/reference) of adjusted means, AUCinf (dn): 80.78%
  Ratio (test/reference) of adjusted means, AUClast (dn): 81.65%
[3]; 100 mg oral tablets vs 50 mg IV, healthy participants, n = 11, listed as lorlatinib
  Absolute oral bioavailability: ratio (test/reference) of adjusted means, AUCinf (dn): 81%
[3]; both oral administration and IV dosing
  Inter-subject variability (%CV) for AUCinf, AUClast and Cmax: 30–38%
[3]; human, plasma, iv, 50 mg, Reference, lorlatinib 50 mg IV, mixed-effects model, read-out: AUCinf (dn), adjusted geometric mean
  AUC(0-inf): 5190 ng·h/mL
[3]; human, plasma, iv, 50 mg, Reference, lorlatinib 50 mg IV, mixed-effects model, read-out: AUClast (dn), adjusted geometric mean
  AUC(0-t): 5030 ng·h/mL
[3]; human, plasma, iv, 50 mg, lorlatinib 50 mg IV, dose normalized, n = 11, geometric mean (geometric %CV), read-out: AUCinf (dn)
  AUC(0-inf): 5150 ng·h/mL
[3]; human, plasma, iv, 50 mg, lorlatinib 50 mg IV, dose normalized, n = 11, geometric mean (geometric %CV), read-out: AUClast (dn)
  AUC(0-t): 4990 ng·h/mL
[3]; human, plasma, iv, 50 mg, lorlatinib 50 mg IV, n = 11, arithmetic mean ± SD
  half-life: 27 h
[3]; human, plasma, iv, 50 mg, lorlatinib 50 mg IV, n = 11, geometric mean (geometric %CV), read-out: AUCinf
  AUC(0-inf): 5150 ng·h/mL
[3]; human, plasma, iv, 50 mg, lorlatinib 50 mg IV, n = 11, geometric mean (geometric %CV), read-out: AUClast
  AUC(0-t): 4990 ng·h/mL
[3]; human, plasma, oral, 100 mg, Test, lorlatinib 100 mg oral tablets, mixed-effects model, normalized to 50 mg IV dose, read-out: AUCinf (dn), adjusted geometric mean
  AUC(0-inf): 4190 ng·h/mL
[3]; human, plasma, po, 100 mg, lorlatinib 100 mg oral tablets, n = 11, arithmetic mean ± SD
  half-life: ~25.5 h
[3]; human, plasma, po, 100 mg, lorlatinib 100 mg oral tablets, single dose, fasted, n = 11, geometric mean (geometric %CV), read-out: AUCinf
  AUC(0-inf): 8290 ng·h/mL
[3]; human, plasma, lorlatinib 50 mg IV, dose normalized, n = 11, geometric mean (geometric %CV), read-out: Cmax (dn)
  Cmax: 392 ng/mL
[3]; human, plasma, lorlatinib 50 mg IV, n = 11, geometric mean (geometric %CV)
  clearance: 162 mL/min
[3]; human, plasma, lorlatinib 50 mg IV, n = 11, geometric mean (geometric %CV), read-out: Vss
  Vd: 305 L
[3]; human, plasma, lorlatinib 50 mg IV, n = 11, read-out: Tmax
  Tmax: 1.28 h
[3]; human, plasma, lorlatinib 100 mg oral tablets, n = 11, geometric mean (geometric %CV), read-out: Vz/F
  Vd/F: 440 L
[3]; lorlatinib 50 mg IV, n = 11, geometric mean (geometric %CV)
  Cmax: 392 ng/mL
[3]; lorlatinib 100 mg oral tablets, n = 11, arithmetic mean ± SD
  t½ (plasma terminal half-life): 25.54 ± 3.75 h
[3]; [6]
  AUClast: 8109 (33) ng.h/mL
  CL/F: 12.05 (34) L/h
  Cmax: 501 ng/mL
[3]; lorlatinib 100 mg oral tablets, n = 11
  Tmax: 1.50 (1.00–4.02) h
[3]; printed in the 100 mg oral column, plasma clearance × blood-to-plasma ratio 0.985 / hepatic blood flow 90 L/hr, geometric mean (geometric %CV)
  Eh (hepatic extraction ratio): 0.118
[4]
  Local vascular tissue irritation: did not indicate any local vascular tissue irritation
